Patent publication US8268976B2, “Flea GABA receptor subunit nucleic acid molecules” (Heska Corporation, priority 2000, dated 2012)
Where two headings read alike, the source gives them in different places.

Assays:
[1] = test system: cat fleas; experiment: Dieldrin filter-disk vial exposure of fleas, mortality (LC50) per flea population; details: Ctenocephalides felis, in Felis catus, 30 h, about 1 ul of DMSO solution on filter disk in vial, about 30 hours
Procedure: (§1) Dieldrin was dissolved in dimethylsulfoxide (DMSO) at concentrations ranging from 0.001 mM to 1000 mM. About 1 ul of dissolved dieldrin from each concentration was spotted onto a 6 mm diameter GF/C filter disk (Whatman, Inc. Clifton, N.J.) in the bottom of a 4 ml screw-top glass vial and allowed to air dry for 24 hours. Negative control vials were prepared in the same manner except that no dieldrin was dissolved in the DMSO. Each dieldrin concentration was tested in triplicate for each of the three flea populations. About 25 newly emerged cat fleas were sedated at 4° C. and transferred to each vial. Each vial was sealed with a thin, perforated Teflon septum secured by an open top screw cap and held vertically in the dark. After about 30 hours, the healthy live, moribund, and dead fleas in each vial were counted.

[2] = test system: cat fleas; experiment: Survival of dieldrin-exposed fleas from the heterozygous population, sorted by sequenced genotype at amino acid 285; assay type: in vivo, Ctenocephalides felis; details: 10 mM and 50 mM dieldrin, pooled
Procedure: The following method was used to determine the genotype of individual fleas. Individual fleas were physically crushed with a pipette tip in a microcentrifuge tube with 30 μl of DNAzol, available from Gibco BRL, Rockville, Md., then heated to 95° C. for 5 minutes. The mixture was centrifuged for 2 minutes, the liquid was removed and DNA was precipitated with ethanol. The precipitated DNA was centrifuged, the ethanol was removed and the pellet was resuspended in 30 μl of distilled water. […] The following PCR thermocycling and reaction conditions were used (1) one cycle of 95° C. for 30 seconds, (2) 35 cycles of 94° C. for 10 seconds, 52° C. for 30 seconds, and 72° C. 30 seconds, in reactions containing 1× AmpliTaq Buffer, 2.0 U AmpliTaq polymerase, available from Perkin Elmer, Foster City, Calif., 0.2 mM dNTP's, and 0.5 uM each primer.
The PCR product was separated by gel electrophoresis and purified using a Qiaquick™ column, available from Qiagen to produce an approximately 240-nucleotide molecule. The 240-nucleotide product was then sequenced using primers 285for and 285rev and dRhodamine terminator chemistry and the sequence was read to determine whether the individual was homozygous for serine or alanine, or a heterozygote.
as §1

Q: What does the source list for `ClC1=C(Cl)[C@]2(Cl)[C@@H]3[C@@H]4C[C@@H]([C@H]5O[C@@H]45)[C@@H]3[C@@]1(Cl)C2(Cl)Cl` [dieldrin]?
A: LC50 ([1]; read-out: LC50 (concentration of dieldrin at which 50% of the fleas were killed), heterozygous alanine/serine flea population (amino acid 285)): 1 mM; LC50 ([1]; read-out: LC50 (concentration of dieldrin at which 50% of the fleas were killed), homozygous alanine flea population (amino acid 285)): 0.2 mM; LC50 ([1]; read-out: LC50 (concentration of dieldrin at which 50% of the fleas were killed), homozygous serine flea population (amino acid 285)): 30 mM; number of dead fleas ([2]; of 1 homozygous alanine flea): 1; number of dead fleas ([2]; of 21 homozygous serine fleas): 4; number of live fleas ([2]; of 21 homozygous serine fleas): 16; number of moribund fleas ([2]; of 21 homozygous serine fleas): 1; number of dead fleas ([2]; of 29 heterozygotes): 24; number of live fleas ([2]; of 29 heterozygotes): 2; number of moribund fleas ([2]; of 29 heterozygotes): 3
